Drawing on BindingDB's records for doi:10.1021/jm0503087 (Conforma Therapeutics, 2006), this text covers EC50 for twelve compounds.

Sequence of Heat shock protein HSP 90-beta (P08238 whole entry): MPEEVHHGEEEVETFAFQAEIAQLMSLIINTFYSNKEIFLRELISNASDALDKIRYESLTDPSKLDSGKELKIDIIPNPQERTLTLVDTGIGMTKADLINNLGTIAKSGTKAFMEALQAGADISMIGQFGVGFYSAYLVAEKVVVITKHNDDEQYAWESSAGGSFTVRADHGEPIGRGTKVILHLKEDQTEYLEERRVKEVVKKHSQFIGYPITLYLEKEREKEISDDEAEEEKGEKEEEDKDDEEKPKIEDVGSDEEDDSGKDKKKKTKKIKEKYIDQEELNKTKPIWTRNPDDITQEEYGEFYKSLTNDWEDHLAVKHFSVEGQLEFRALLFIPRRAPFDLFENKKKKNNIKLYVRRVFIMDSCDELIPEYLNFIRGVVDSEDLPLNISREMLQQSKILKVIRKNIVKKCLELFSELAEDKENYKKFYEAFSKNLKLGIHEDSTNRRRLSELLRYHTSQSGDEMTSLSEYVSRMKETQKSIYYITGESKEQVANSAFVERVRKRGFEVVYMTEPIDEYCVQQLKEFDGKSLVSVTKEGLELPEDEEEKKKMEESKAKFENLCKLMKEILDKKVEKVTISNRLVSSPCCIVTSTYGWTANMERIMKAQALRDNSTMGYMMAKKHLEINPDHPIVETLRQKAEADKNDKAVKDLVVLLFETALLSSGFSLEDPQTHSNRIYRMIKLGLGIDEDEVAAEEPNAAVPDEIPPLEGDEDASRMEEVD

This experiment has as its target Heat shock protein HSP 90-beta (Homo sapiens, UniProt P08238). Briefly: Her-2 Degradation Assay. As to conditions: pH 7.2; 37 °C.
Experimental: A fluorescence histogram was generated, and the mean fluorescence intensity (MFI) of each sample was determined using Cellquest software.
The compound `COc1ccc(I)c(Sc2nc3c(N)ncnc3n2CCCNC(C)(C)C)c1` showed an EC50 of 140 nM.
On to `C#CCCCn1c(Sc2cc(OC)ccc2I)nc2c(N)nc(F)nc21` [2-fluoro-8-[(2-iodo-5-methoxyphenyl)sulfanyl]-9-(pent-4-yn-1-yl)-9H-purin-6-amine], for which the response was half-maximal at 360 nM (EC50).
`CCCCn1c(Cc2cc(OC)ccc2Br)nc2c(N)ncnc21` [8-[(2-bromo-5-methoxyphenyl)methyl]-9-butyl-9H-purin-6-amine] gave an EC50 of 8000 nM.
`COc1ccc(I)c(Sc2nc3c(N)ncnc3n2CCC=C(C)C)c1` [8-[(2-iodo-5-methoxyphenyl)sulfanyl]-9-(4-methylpent-3-en-1-yl)-9H-purin-6-amine] came in with an EC50 of 370 nM.
Turning to `CCC(CC)NCCCn1c(Sc2cc(OC)ccc2I)nc2c(N)ncnc21` [8-[(2-iodo-5-methoxyphenyl)sulfanyl]-9-[3-(pentan-3-ylamino)propyl]-9H-purin-6-amine], the EC50 was found to be 210 nM.
`COc1ccc(I)c(Sc2nc3c(N)ncnc3n2CCCNC(C)C)c1` [8-[(2-iodo-5-methoxyphenyl)sulfanyl]-9-[3-(propan-2-ylamino)propyl]-9H-purin-6-amine] registered a 50% effective concentration (EC50) of 180 nM.
As for `COc1ccc(I)c(Sc2nc3c(N)ncnc3n2CCNCC(C)C)c1` [8-[(2-iodo-5-methoxyphenyl)sulfanyl]-9-{2-[(2-methylpropyl)amino]ethyl}-9H-purin-6-amine], the figure is 100 nM.
Under `CCC(C)NCCCn1c(Sc2cc(OC)ccc2I)nc2c(N)ncnc21` (configuration not stated) [9-[3-(butan-2-ylamino)propyl]-8-[(2-iodo-5-methoxyphenyl)sulfanyl]-9H-purin-6-amine] stands 210 nM.
For the compound `CCCCn1c(Sc2cc(OC)ccc2OC)nc2c(N)ncnc21` [9-butyl-8-[(2,5-dimethoxyphenyl)sulfanyl]-9H-purin-6-amine], the response was half-maximal at 3500 nM (EC50).
As for `CCCCn1c(Cc2cc(OC)ccc2Cl)nc2c(N)ncnc21` [9-butyl-8-[(2-chloro-5-methoxyphenyl)methyl]-9H-purin-6-amine], the figure is 20000 nM; as for `CCCCn1c(Cc2cc(OC)ccc2I)nc2c(N)ncnc21` [9-butyl-8-[(2-iodo-5-methoxyphenyl)methyl]-9H-purin-6-amine], 5000 nM.
Under `CCCCn1c(Cc2cc(OC)ccc2OC)nc2c(N)ncnc21` [PU7] stands 12000 nM.
